According to patent US10689622B2, “Culture medium for proliferating stem cell, which contains sulfated compound” (AJINOMOTO CO., INC., priority 2012, dated 2020):

Key:
bFGF [1] = biological target: T1, bFGF (Homo sapiens, UniProt P09038); test: Evaluation of bFGF stabilization in Essential 8 medium (ELISA); type: biochemical; conditions: 37° C. for 7 days
T1 construct: purchased Lonza (via TAKARA BIO INC.) Ser. No. 00/190,632
Summary of the method: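 Test compound in PBS diluted 10-fold into serum-free medium (Essential 8 or ReproFF2), held sealed at 37° C for 7 days; remaining bFGF quantified by ELISA against a standard curve. Controls: PBS without compound diluted into each medium, held 7 days at 37° C or 4° C.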

bFGF [2] = biological target: T1, bFGF; test: Evaluation of bFGF stabilization in ReproFF2 medium (ELISA); type: biochemical; conditions: 37° C. for 7 days
Procedure: (§1) A commercially available measurement kit (human bFGF ELISA kit, ELH-bFGF-001, Ray Biotech) was used for quantification of bFGF in the medium. The measurement procedures followed the protocol attached to the kit. The bFGF concentration of the serum-free medium was calculated from the analytical curve (conversion formula) drawn from the absorbance of an analytical curve standard solution. The evaluation criteria of Tables 5-8 are as follows:
(§2) A test compound was dissolved in phosphate buffered saline, and diluted 10-fold with a serum-free medium to adjust the concentration shown in Table 4 (test sample). The test sample was left standing in a tightly sealed Falcon tube at 37° C. for 7 days, and the bFGF concentration was quantified by ELISA measurement. A phosphate buffered saline without a test compound was diluted 10-fold with Essential 8 medium or ReproFF2 medium, and left standing at 37° C. or 4° C. for 7 days, and used as a control.
as §1, with “Table 13” for “Tables 5-8”
as §2, with “Table 12” for “Table 4”

T1 sequence (P09038 143-288): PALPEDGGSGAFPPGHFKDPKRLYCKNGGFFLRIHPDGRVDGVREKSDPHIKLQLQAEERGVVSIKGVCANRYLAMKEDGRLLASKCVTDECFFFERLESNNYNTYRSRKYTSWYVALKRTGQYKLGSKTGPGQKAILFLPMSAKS

concentration showing a suppressive effect on a decrease in the bFGF concentration of the medium (bFGF [1]): not less than 2.5 μg/ml | concentration showing a suppressive effect on a decrease in the bFGF concentration of the medium (bFGF [2]): not less than 250 pg/ml
Structure (SMILES): O=S(=O)([O-])OC[C@H]1O[C@@](COS(=O)(=O)[O-])(O[C@H]2O[C@H](COS(=O)(=O)[O-])[C@@H](OS(=O)(=O)[O-])[C@H](OS(=O)(=O)[O-])[C@H]2OS(=O)(=O)[O-])[C@@H](OS(=O)(=O)[O-])[C@@H]1OS(=O)(=O)[O-].[K+].[K+].[K+].[K+].[K+].[K+].[K+].[K+] [sucrose 8SO3K]
bFGF concentration relative to that of 4° C. control (ELISA) (bFGF [1]; test compound 250 pg/ml): x (bFGF concentration was less than 10% relative to that of 4 °C control) | bFGF concentration relative to that of 4° C. control (ELISA) (bFGF [1]; test compound 25 ng/ml): x (bFGF concentration was less than 10% relative to that of 4 °C control) | bFGF concentration relative to that of 4° C. control (ELISA) (bFGF [1]; test compound 250 ng/ml): x (bFGF concentration was less than 10% relative to that of 4 °C control) | bFGF concentration relative to that of 4° C. control (ELISA) (bFGF [1]; test compound 25 μg/ml): +++ (bFGF concentration was not less than 70% relative to that of 4 °C control) | bFGF concentration relative to that of 4° C. control (ELISA) (bFGF [1]; test compound 250 μg/ml): +++ (bFGF concentration was not less than 70% relative to that of 4 °C control) | bFGF concentration relative to that of 4° C. control (ELISA) (bFGF [2]; test compound 250 pg/ml): − (bFGF concentration was not less than 10% and less than 30% relative to that of 4 °C control) | bFGF concentration relative to that of 4° C. control (ELISA) (bFGF [2]; test compound 25 ng/ml): +++ (bFGF concentration was not less than 70% relative to that of 4 °C control) | bFGF concentration relative to that of 4° C. control (ELISA) (bFGF [2]; test compound 250 ng/ml): +++ (bFGF concentration was not less than 70% relative to that of 4 °C control) | bFGF concentration relative to that of 4° C. control (ELISA) (bFGF [2]; test compound 25 μg/ml): ++ (bFGF concentration was not less than 50% and less than 70% relative to that of 4 °C control) | bFGF concentration relative to that of 4° C. control (ELISA) (bFGF [2]; test compound 250 μg/ml): +++ (bFGF concentration was not less than 70% relative to that of 4 °C control)
